Laboratory results as given in patent US11434199B2, “Alcohol derivatives as KV7 potassium channel openers” (H. Lundbeck A/S, priority 2018, dated 2022).

Target: T1, hKv7.2/hKv7.3 (Homo sapiens, UniProt O43525+O43526)
T1 construct: P2A remnant (self-cleaving peptide between Kv7.3 and Kv7.2) (C); expressed in transfected cells
Assay: Thallium influx assay for potassium channel activation
Assay type: cell-based
Conditions: HEK-hKv7.2/hKv7.3 cells; FLIPR Potassium Assay kit; AUC readout normalized to a reference compound
Experimental: (§1) A synthesized cDNA fragment encoding human Kv7.3 and human Kv7.2 separated by a P2A sequence was inserted into the pcDNA5/FRT/TO vector using the BamHI and XhoI restriction sites. The construct was then transfected into HEK Flp-In 293 cells using Lipofectamine2000. The transfected cells were grown for 48 hours in DMEM containing 10% (v/v) FBS and 1% PenStrep and subsequently maintained under selection in DMEM containing 10% (v/v) FBS, 1% PenStrep and 200 ug/mL Hygromycin B at 37° C. in a humidified atmosphere of 5% CO2.
The thallium influx assay for potassium channel activation was performed analogously to a published procedure (C. D. Weaver, et al., J Biomol Screen 2004, 9, 671-677) using the FLIPR Potassium Assay kit (Molecular Devices). HEK-hKv7.2/hKv7.3 cells were plated onto 96-well, black-walled, clear-bottomed culture plates (Corning, Acton, Mass., USA) at a density of 80,000 cells/well (100 μl/well) if the cells were assayed the following day, or 40,000 cells/well (100 μl/well) if the cells were assayed two days after seeding.
On the assay day, the medium was removed after which 50 uL/well of test compound diluted to 2× final concentration in HBSS containing 20 mM HEPES, and 50 uL/well of 2× dye load buffer were added. The cells were then incubated for 60 min at room temperature in the dark. Chloride-free stimulation buffer containing Tl^+ and K^+ at 5× final concentration (5× concentration: 5 mM in both cases) and test compound at 1× final concentration, were prepared during the incubation. The cells were then assayed in a FDSS7000EX Functional Drug Screening System (Hamamatsu). Following 60 sec of baseline fluorescence signal reading at 0.1 Hz, and 10 sec at 1 Hz, 25 uL/well of stimulation buffer were added and the fluorescence continuously measured for 50 sec at 1 Hz followed, by 4 min at 0.1 Hz. Compound effect was quantified using AUC as readout and normalized to a reference compound, which was included on each plate.

SMILES | EC50 [µM]
C[C@H](NC(=O)CC(O)C(C)(C)C)c1cccc(OC(F)F)c1 (single isomer, unassigned) [Example 3a] | 11
C[C@H](NC(=O)CC(O)C1(C(F)(F)F)CC1)c1cccc(OC(F)(F)F)c1 (single isomer, unassigned) [Example 16a] | 3
C[C@H](NC(=O)CC(O)C(C)(C)C)c1cccc(OCC(F)(F)F)c1 (single isomer, unassigned) [Example 2b] | 1.8
CC[C@H](NC(=O)CC(O)C(C)(C)C)c1cccc(OC(F)(F)F)c1 (single isomer, unassigned) [Example 8a] | 0.43
C[C@H](NC(=O)CC(O)C1(C(F)F)CC1)c1cccc(OC(F)(F)F)c1 (single isomer, unassigned) [Example 14a] | 2
C[C@H](NC(=O)C[C@@H](O)C1(C(F)F)CC1)c1cccc(OC(F)(F)F)c1 (single isomer, unassigned) [Example 14b] | 6.6
C[C@H](NC(=O)CC(C)(O)C1(F)CC1)c1cccc(OC(F)(F)F)c1 (single isomer, unassigned) [Example 15b] | 11
C[C@H](NC(=O)CC(C)(O)C(F)(F)F)c1cccc(OCC(F)(F)F)c1 (single isomer, unassigned) [Example 19a] | 1.7
CC(C)C(O)CC(=O)N[C@@H](C)c1cccc(OCC(F)(F)F)c1 (single isomer, unassigned) [Example 12a] | 1.6
C[C@H](NC(=O)C[C@@](C)(O)C1(F)CC1)c1cccc(OC(F)(F)F)c1 (single isomer, unassigned) [Example 15a] | 2.1
C[C@H](NC(=O)CC(C)(O)C(F)(F)F)c1cccc(OCC(F)(F)F)c1 (single isomer, unassigned) [Example 19b] | 3.4
CC(C)C(O)CC(=O)N[C@@H](C)c1cccc(OCC(F)(F)F)c1 (single isomer, unassigned) [Example 12b] | 5.9
C[C@H](NC(=O)CC(C)(O)C(F)(F)C(F)F)c1cccc(OC(F)(F)F)c1 (single isomer, unassigned) [Example 10b] | 1.3
C[C@H](NC(=O)CC(C)(O)CC(F)(F)F)c1cccc(OC(F)(F)F)c1 (single isomer, unassigned) [Example 13b] | 2.9
C[C@H](NC(=O)CC(C)(O)C1CC1)c1cccc(OCC(F)(F)F)c1 (single isomer, unassigned) [Example 18a] | 1.3
CC[C@H](NC(=O)CC(O)C(C)(C)C)c1cccc(OC(F)(F)F)c1 (single isomer, unassigned) [Example 8b] | 3
C[C@H](NC(=O)CC(O)C1CC(F)(F)C1)c1cccc(OC(F)(F)F)c1 (single isomer, unassigned) [Example 11b] | 4.5
C[C@H](NC(=O)CC(O)C(C)(C)C)c1cccc(OCC(F)(F)F)c1 (single isomer, unassigned) [Example 2a] | 0.46
C[C@H](NC(=O)CC(O)C1(C(F)(F)F)CC1)c1cccc(OC(F)(F)F)c1 (single isomer, unassigned) [Example 16b] | 10
C[C@H](NC(=O)CC(C)(O)C1CC1)c1cccc(OCC(F)(F)F)c1 (single isomer, unassigned) [Example 18b] | 7.1
C[C@H](NC(=O)CC(O)C(C)(C)C)c1cccc(OC(F)F)c1 (single isomer, unassigned) [Example 3b] | 1.5
CC(C)C(O)(CC(=O)N[C@@H](C)c1cccc(OCC(F)(F)F)c1)C(F)(F)F (single isomer, unassigned) [Example 7b] | 1.5
CC(C)C(O)(CC(=O)N[C@@H](C)c1cccc(OCC(F)(F)F)c1)C(F)(F)F (single isomer, unassigned) [Example 7a] | 0.22
C[C@H](NC(=O)CC(O)C(C)(C)C)c1cccc(C(F)(F)F)c1 (single isomer, unassigned) [Example 4a] | 11
C[C@H](NC(=O)CC(O)C(C)(C)C)c1cccc(C(F)(F)F)c1 (single isomer, unassigned) [Example 4b] | 1.2
CC(C)C(O)CC(=O)N[C@@H](C)c1cccc(OC(F)(F)F)c1 (single isomer, unassigned) [Example 20a] | 3.1
CC(C)C(O)CC(=O)N[C@@H](C)c1cccc(OC(F)(F)F)c1 (single isomer, unassigned) [Example 20b] | 14

Target: T1, hKv7.2/hKv7.3
Assay: Automated whole cell patch-clamp functional test of the HEK-hKv7.2/hKv7.3 cell line
Assay type: cell-based
Conditions: stable HEK-hKv7.2/hKv7.3 cell line
Experimental: as §1

SMILES | effect on Kv7-current
O=C1c2ccccc2C(Cc2ccncc2)(Cc2ccncc2)c2ccccc21 [XE991] | sensitive
CCOC(=O)Nc1ccc(NCc2ccc(F)cc2)cc1N [Retigabine, N-(2-amino-4-(4-fluorobenzylamino)-phenyl) carbamic acid ethyl ester] | potentiated
